Molecules are shown by their SMILES. Like-named read-outs stand apart in the source and are kept apart here.

One data set in a line: in vivo. On the set-up: species or system Male SD rats. To be noted: rat, plasma; for AUC at 8 h: 0-8 hr, read-out: AUC0^8 (Area under the plasma concentration time curve). As to the method: In the same manner as Experiment Example 1 mentioned above, 960 mg of PEG-6000, 20 mg of lansoprazole and 20 mg of sodium oleate were evenly melted and dispersed. The resulting dispersion was filled in 200 mg portions into metallic rectal suppository containers for rats and cooled to provide composition for rectal administration for rats. In addition, using 960 mg of Witepsol W-35 (Dynamit Nobel), 20 mg of lansoprazole and 20 mg of sodium oleate, composition for rectal administration for rats in otherwise the same manner as above.
Male SD rats weighing 250-280 g (Japan Clea) were provided. The animals were allowed food and water ad libitum and, then, fasted for about 16 hours (water was available ad libitum). Using the rats fasted for about 16 hours, the composition for rectal administration prepared above were inserted into the anus and, to prevent expulsion of the drug, the perianal skin was clipped.
For control purposes, 80 mg of lansoprazole, 1.5 ml of PEG-400 and 9.5 ml of 0.5% aqueous solution of sodium hydrogen carbonate were admixed to prepare an injectable solution. This solution was injected, in a volume of 0.25 ml, into the femoral vein of each rat (intravenous dosing).
At 0.08, 0.17, 0.25, 0.5, 1.0, 2.0, 4.0 and 8.0 hours after administration,the blood was drawn from the caudal vein of rats using a blood sampling tube containing a small amount of heparin. Each blood sample was centrifuged (3000 rpm, 10 min.) to separate the plasma (0.1 ml) and lansoprazole in each plasma sample was assayed. The assay method was as follows. To 0.1 ml of plasma were added 0.5 ml of 0.5% aqueous solution of sodium hydrogen carbonate and 3 ml of chloroform and the mixture was shaken vigorously for about 5 minutes and centrifuged at 2500 rpm for about 5 minutes. The under layer (chloroform layer), 2 ml, was taken and the solvent chloform was evaporated off by blasting with nitrogen gas. The residue was redissolved in 0.2 ml of HPLC mobile phase and subjected to HPLC analysis (injection amount 50 μl) under the following conditions.
Column: YMC A-303 (5 μm), 4.6 mm in internal diameter and 25 cm in length (YMC).
Mobile phase: a mixture of water, acetonitrile and triethylamine (60:40:1) adjusted to pH 7.0 with phosphoric acid.
Detection: A UV spectrophotometer (exciting wavelength 285 nm)
Column temperature: Room temperature

Data set [1] in a line: Stability of lansoprazole composition for rectal administration: change in color on storage at 40° C. and 75% relative humidity (Experimental Example 2). Type of data set: physicochemical. The note with it: relative humidity 75%, conclusion from Table 2. As to the method: (§1) After each of them was melted by warming at 60° C., 20 mg of lansoprazole and a specified amount [See Table 1] of sodium oleate were admixed with the base to prepare a composition. Each composition was stored at room temperature (25° C.) and the change in color was evaluated by comparing it with the composition prior to storage.
Using different fatty acid salts, the stability of lansoprazole in compositions for rectal administration was evaluated by the same procedure as Experiment Example 1. EPG-4000 or Witepsol W-35 was used as the base and sodium oleate, sodium palmitate or sodium caprate was used as the fatty acid salt, each in the amount indicated in Table 2. In this stability test, the test compositions were stored at a temperature of 40° C. and a relative humidity of 75%.

Data set [2] in a line: Stability of lansoprazole composition for rectal administration: change in color on storage at room temperature (25° C.) (Experiment Example 1). Format: physicochemical. The note with it: conclusion from Table 1. The protocol:
Using PEG-4000 (Wako Pure Chemical Industries, Japan) or Witepsol W-35 (Dynamit Novel, Germany) as a base for rectal administration, the stability of lansoprazole in the composition was compared between the inclusion of sodium oleate and the exclusion of sodium oleate.
as §1

Where [3] appears, read: Rectal, Oleaginous base (Witepsol W-35) with sodium oleate.
[4] abbreviates: Rectal, Water-soluble base (PEG-6000) with sodium oleate.

For `Cc1c(OCC(F)(F)F)ccnc1C[S+]([O-])c1nc2ccccc2[nH]1` (stereo not shown) [lansoprazole, 2-[2-[3-methyl-4-(2,2,2-trifluoroethoxy)pyridyl]methylsulfinyl]benzimidazole], in the data set “in vivo” (setting [3]), the AUC at 8 h was found to be 1080 ng·h/mL, the concentration at 0.08 h stood at 90 ng/mL, the concentration at 0.17 h was found to be 140 ng/mL and the concentration at 0.25 h turned out to be 210 ng/mL. In the data set “in vivo” (setting [3]), this compound came in with a concentration at 0.5 h of 310 ng/mL, a concentration at 1 h of 360 ng/mL, a concentration at 2 h of 180 ng/mL and a concentration at 4 h of 90 ng/mL. Also, the concentration at 8 h in “in vivo” (setting [3]) worked out at 50 ng/mL. For the same compound, in “in vivo” (setting [4]), the AUC at 8 h amounted to 890 ng·h/mL, the concentration at 0.08 h came to 160 ng/mL, the concentration at 0.17 h was determined as 240 ng/mL and the concentration at 0.25 h is 310 ng/mL. In addition, in the data set “in vivo” (setting [4]), the concentration at 0.5 h came out at 420 ng/mL, the concentration at 1 h stood at 330 ng/mL, the concentration at 2 h was 110 ng/mL and the concentration at 4 h was 60 ng/mL. This compound showed a concentration at 8 h in “in vivo” (setting [4]) of 30 ng/mL. Besides, in “in vivo” (iv), the AUC at 8 h was 3860 ng·h/mL, the concentration at 0.08 h stood at 6960 ng/mL, the concentration at 0.17 h was found to be 5390 ng/mL and the concentration at 0.25 h was found to be 4830 ng/mL. In the data set “in vivo” (iv), this compound registered a concentration at 0.5 h of 3280 ng/mL, a concentration at 1 h of 910 ng/mL, a concentration at 2 h of 70 ng/mL and a concentration at 4 h of 5 ng/mL. Further, the concentration at 8 h in the data set “in vivo” (iv) was 2 ng/mL.
On to `CCCCCCCCCC(=O)[O-].[Na+]` [sodium caprate], for which the “contribution to the stability of the active drug” value (“contribution to the stability” for short) in data set [1] is on record as “contributed a great deal to the stability of the active drug”.
As to `CCCCCCCC/C=C\CCCCCCCC(=O)[O-].[Na+]` [sodium oleate], the stabilization of lansoprazole entry in data set [2] was “stabilized lansoprazole”. For the same compound, the “contribution to the stability” value in data set [1] is “contributed a great deal to the stability of the active drug”.
`CCCCCCCCCCCCCCCC(=O)[O-].[Na+]` [sodium palmitate]: the “contribution to the stability” value in data set [1] is reported as “contributed a great deal to the stability of the active drug”.

These data come from patent US5635520A, “Anti-ulcer compositions suitable for rectal administration” (Takeda Chemical Industries, Ltd., priority 1993, dated 1997).
